Results: ChEMBL document CHEMBL1201862, “PubChem BioAssay data set” (2004)
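Step 1: Grow cells in 96-well plates. Step 2: Expose to compound for 48 hours at 5 concentrations. Step 3: Interpolate endpoints linearly; if unreached, use highest concentration. GI50 is the concentration that inhibits growth by half.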 The source made the active and inactive calls. No stated cut-off is given here; in the data, active = GI50 up to about 1.1 µM and inactive = higher.

Assays:
Assay in all cases: NCI tumour cell line growth inhibition, 48 h
HT-29 = tested on: HT-29
Hs-578T = tested on: Hs-578T
NCI-H460 = tested on: NCI-H460
HL-60 = tested on: HL-60
SK-MEL-28 = tested on: SK-MEL-28
SF-268 = tested on: SF-268
PC-3 = tested on: PC-3
HOP-62 = tested on: HOP-62
ACHN = tested on: ACHN
SNB-19 = tested on: SNB-19
UACC-257 = tested on: UACC-257
A549 = tested on: A549
RXF 393 = tested on: RXF 393
A498 = tested on: A498
HCC 2998 = tested on: HCC 2998
SK-OV-3 = tested on: SK-OV-3
OVCAR-4 = tested on: OVCAR-4
HOP-92 = tested on: HOP-92

SMILES	GI50 (HT-29)	GI50 (Hs-578T)	GI50 (NCI-H460)	GI50 (HL-60)	GI50 (SK-MEL-28)	GI50 (SF-268)	GI50 (PC-3)	GI50 (HOP-62)	GI50 (ACHN)	GI50 (SNB-19)	GI50 (UACC-257)	GI50 (A549)	GI50 (RXF 393)	GI50 (A498)	GI50 (HCC 2998)	GI50 (SK-OV-3)	GI50 (OVCAR-4)	GI50 (HOP-92)
O=C(Cn1c(=O)ccn(C2OC(CO)C(O)C2F)c1=O)c1ccc(F)cc1 (stereo not drawn)	> 100 µM (inactive)	> 100 µM (inactive)	> 100 µM (inactive)	> 100 µM (inactive)	> 100 µM (inactive)	> 100 µM (inactive)	> 100 µM (inactive)	> 100 µM (inactive)	> 100 µM (inactive)	> 100 µM (inactive)	> 100 µM (inactive)	> 100 µM (inactive)	> 100 µM (inactive)	–	–	–	–	–
Cc1cc2[nH]c3c(C#N)c(-c4ccccc4)c(/C=N/c4ccc(F)cc4)c(=O)n3c2cc1C	–	–	> 100 µM (inactive)	–	> 100 µM (inactive)	99.5 µM (inactive)	> 100 µM (inactive)	> 100 µM (inactive)	> 100 µM (inactive)	0.513 µM (active)	> 100 µM (inactive)	49 µM (inactive)	91.2 µM (inactive)	> 100 µM (inactive)	> 100 µM (inactive)	> 100 µM (inactive)	> 100 µM (inactive)	–
CC(C)(C)Cc1cc(O)ccc1O	> 100 µM (inactive)	–	63.4 µM (inactive)	6.73 µM (inactive)	> 100 µM (inactive)	87.9 µM (inactive)	> 100 µM (inactive)	> 100 µM (inactive)	86.1 µM (inactive)	49.9 µM (inactive)	33.3 µM (inactive)	58.9 µM (inactive)	98.6 µM (inactive)	> 100 µM (inactive)	51.9 µM (inactive)	> 100 µM (inactive)	> 100 µM (inactive)	> 100 µM (inactive)
CC1CCN(C(C)C)P(=S)(Cc2ccccc2)O1 (stereo not drawn)	> 100 µM (inactive)	–	> 100 µM (inactive)	–	13.6 µM (inactive)	> 100 µM (inactive)	55 µM (inactive)	> 100 µM (inactive)	> 100 µM (inactive)	> 100 µM (inactive)	97.3 µM (inactive)	> 100 µM (inactive)	–	–	83.9 µM (inactive)	> 100 µM (inactive)	84.3 µM (inactive)	–
COC(=O)C1=C2SCc3cccc(c3)CSC3=C(C(=O)OC)SC(=C(S2)S1)S3	–	–	> 100 µM (inactive)	25.9 µM (inactive)	> 100 µM (inactive)	–	35.5 µM (inactive)	> 100 µM (inactive)	> 100 µM (inactive)	> 100 µM (inactive)	> 100 µM (inactive)	> 100 µM (inactive)	> 100 µM (inactive)	> 100 µM (inactive)	> 100 µM (inactive)	> 100 µM (inactive)	> 100 µM (inactive)	–
C/C(=C\COP(=O)(O)OP(=O)(O)O)CCCOCc1ccccc1	> 100 µM (inactive)	> 100 µM (inactive)	> 100 µM (inactive)	61.7 µM (inactive)	> 100 µM (inactive)	> 100 µM (inactive)	> 100 µM (inactive)	> 100 µM (inactive)	> 100 µM (inactive)	> 100 µM (inactive)	38.4 µM (inactive)	> 100 µM (inactive)	> 100 µM (inactive)	–	–	> 100 µM (inactive)	> 100 µM (inactive)	–
COC(=O)/C=C1/N=C(N(C)/N=C/c2ccccc2)NC1=O	> 100 µM (inactive)	> 100 µM (inactive)	> 100 µM (inactive)	> 100 µM (inactive)	> 100 µM (inactive)	> 100 µM (inactive)	> 100 µM (inactive)	> 100 µM (inactive)	–	> 100 µM (inactive)	> 100 µM (inactive)	> 100 µM (inactive)	> 100 µM (inactive)	–	> 100 µM (inactive)	> 100 µM (inactive)	> 100 µM (inactive)	–
CC1=CCS(=O)(=O)C1C(O)C1=C(C)CCCC1(C)C (stereo not drawn)	> 100 µM (inactive)	–	–	35.3 µM (inactive)	> 100 µM (inactive)	–	55.5 µM (inactive)	> 100 µM (inactive)	> 100 µM (inactive)	> 100 µM (inactive)	58.9 µM (inactive)	68.5 µM (inactive)	> 100 µM (inactive)	0.0395 µM (active)	> 100 µM (inactive)	> 100 µM (inactive)	84.5 µM (inactive)	–
O=c1c2ccccc2nc(-c2cccc([N+](=O)[O-])c2)n1O	43.7 µM (inactive)	> 100 µM (inactive)	29.2 µM (inactive)	1.64 µM (inactive)	> 100 µM (inactive)	34.4 µM (inactive)	–	49 µM (inactive)	38.5 µM (inactive)	53.2 µM (inactive)	50.7 µM (inactive)	34.9 µM (inactive)	47.1 µM (inactive)	> 40.7 µM (inactive)	59.6 µM (inactive)	42.8 µM (inactive)	33 µM (inactive)	3.94 µM (inactive)
Clc1ccc(/C=C/c2nc(-c3ccccc3)cn3c2nc2ccccc23)cc1Cl	37.3 µM (inactive)	–	32.7 µM (inactive)	19.6 µM (inactive)	65.8 µM (inactive)	59 µM (inactive)	62.4 µM (inactive)	59.2 µM (inactive)	49.5 µM (inactive)	59.6 µM (inactive)	> 100 µM (inactive)	59.6 µM (inactive)	50.7 µM (inactive)	> 100 µM (inactive)	43.5 µM (inactive)	> 100 µM (inactive)	40.9 µM (inactive)	70 µM (inactive)
COC(=O)[C@H](C)N1C(=O)N[C@@H](C(C)C)C1=O	> 100 µM (inactive)	–	> 100 µM (inactive)	–	> 100 µM (inactive)	–	> 100 µM (inactive)	> 100 µM (inactive)	> 100 µM (inactive)	> 100 µM (inactive)	> 100 µM (inactive)	> 100 µM (inactive)	> 100 µM (inactive)	–	> 100 µM (inactive)	> 100 µM (inactive)	> 100 µM (inactive)	> 100 µM (inactive)
CC(C)N1[C@@H]2CCCC[C@H]2N(C(C)C)[PH]1=O	> 100 µM (inactive)	> 100 µM (inactive)	> 100 µM (inactive)	–	–	> 100 µM (inactive)	–	> 100 µM (inactive)	> 100 µM (inactive)	–	> 100 µM (inactive)	> 100 µM (inactive)	> 100 µM (inactive)	> 100 µM (inactive)	> 100 µM (inactive)	> 100 µM (inactive)	–	> 100 µM (inactive)
CN1CCN(Cc2ccccc2)CC1CC#N (stereo not drawn)	> 100 µM (inactive)	–	> 100 µM (inactive)	> 100 µM (inactive)	> 100 µM (inactive)	> 100 µM (inactive)	–	> 100 µM (inactive)	> 100 µM (inactive)	> 100 µM (inactive)	> 100 µM (inactive)	> 100 µM (inactive)	> 100 µM (inactive)	> 100 µM (inactive)	> 100 µM (inactive)	> 100 µM (inactive)	> 100 µM (inactive)	–
O=C1c2cn[nH]c2N=C(Nc2ccccc2)C1/N=C/c1ccc([N+](=O)[O-])cc1 (stereo not drawn)	> 10 µM (inactive)	> 10 µM (inactive)	> 10 µM (inactive)	> 10 µM (inactive)	–	> 10 µM (inactive)	> 10 µM (inactive)	–	> 10 µM (inactive)	> 10 µM (inactive)	> 10 µM (inactive)	> 10 µM (inactive)	–	–	> 10 µM (inactive)	–	> 10 µM (inactive)	–
